Test results published in patent publication US20230242538A1, “PanK Modulators and Methods Using Same” (YALE UNIVERSITY, priority 2020, published 2023).
Values after ≈ are worked out from the molar mass of the structure shown. Like-named read-outs stand apart in the source and are kept apart here.

How the values were obtained:
[1] = tested on: WT cells (Saccharomyces cerevisiae JS91.15-23); assay: Spotting assay on YPD agar, WT yeast; assay type: cell-based; details: 30° C., 48 hours; amorolfine 10 ng/mL, fluconazole 10 μg/mL, terbinafine 10 μg/mL, amphotericin B 1 μg/mL
Text: (§1) Yeast strains (Saccharomyces cerevisiae) used in this study are JS91.15-23 (MATα his3 leu2 trp1 ura3) and JS91.14-24 (MATa ura3 his3 cab1ts) (Olzhausen, et al., 2009, Curr Genet 55, 163-173). Wild type and mutant strains were propagated either in YPD medium (2% bacto-peptone, 2% D-(+)-glucose and 1% yeast extract) or defined pantothenic acid-free (minimal) medium composed of Yeast Nitrogen Base (MP Biomedicals), supplemented with Complete Supplement Mixture (MP Biomedicals) and all vitamins except pantothenic acid. Where indicated, media were supplemented with appropriate concentrations of pantothenic acid.
(§2) Spotting assay were performed as follows. Pre-cultures of WT and cab1^ts yeast strains were prepared in YPD medium overnight at 30° C. Cells were harvested, washed, and diluted to 10^8 cells in 500 μL sterile water. Subsequent serial dilutions were made and 5 μL of cell suspensions were spotted on YPD agar plates lacking or supplemented with amorolfine 10 ng/mL, amphotericin B 1 μg/mL, fluconazole 10 μg/mL or terbinafine 10 μg/mL to achieve 10^6, 10^5, 10^4, 10^3, 10^2, and 10^1 cells per spot. Plates were incubated at 30° C. or 37° C. and imaged every 24 hours. For liquid assay in 96-well plate format, cells were pre-cultured overnight in liquid YPD medium at 30° C., washed three times in water and diluted to achieve 10^4 cells per well in 150 μL of minimal medium supplemented with 1 μM, 10 μM or 100 μM pantothenic acid and either lacking or supplemented with terbinafine (160 μg/ml). All plates were incubated at 30° C. Optical density measurements were taken with a BioTek SynergyMx microplate reader (OD630) every 8 hours for a total of 96 hours. Relative time to mid-log phase was calculated by first graphing growth curves of the varying concentrations of terbinafine for each concentration of pantothenic acid, and then determining the value at which the untreated curve reached saturation, and dividing it by 2 to represent the mid-log value. Dividing the time to mid-log phase of treated cells by the time to mid-log phase of untreated gave the relative time to mid-log phase.

[2] = tested on: cab1^ts cells (Saccharomyces cerevisiae JS91.14-24); assay: Spotting assay on YPD agar, cab1ts yeast; assay type: cell-based; details: 30° C., 48 hours; amorolfine 10 ng/mL, fluconazole 10 μg/mL, terbinafine 10 μg/mL, amphotericin B 1 μg/mL
Text: as §1, §2

[3] = tested on: WT cells (Saccharomyces cerevisiae); assay: Liquid growth assay in minimal medium, WT yeast; assay type: cell-based
Text: as §1, §2

[4] = tested on: cab1^ts cells (Saccharomyces cerevisiae); assay: Liquid growth assay in minimal medium, cab1ts yeast; assay type: cell-based; details: for relative time to mid-log phase in the presence vs. absence of the drug: 160 μg/mL terbinafine
Text: as §1, §2

[5] = tested on: WT cells (Saccharomyces cerevisiae); assay: Drug-drug interaction with α-PanAm, checkerboard / isobologram; assay type: cell-based; details: n=2
Experimental: Clin. Microbiol. 43:140-143. The isobologram was produced by solving for the sum 50% fractional inhibitory concentration (ΣFIC50) using the equation: The data from the time-point where the 0 μg/mL terbinafine curve reached saturation was used to generate percent inhibition values, representing growth inhibition based on the concentration of terbinafine. This was done by dividing the value of interest by the untreated (0 μg/mL terbinafine) value, multiplying by 100 to get a percentage, and then subtracting that percentage from 100, representing 100% inhibition. The resulting values were used to create an inhibition curve, using the best fit function to generate an MIC50. […] The resulting MIC50 values were plugged into the ΣFIC50 equation, and the ΣFIC50 values were used to generate the curve.

yeast = details: cited from earlier work
[6] = 1 μg/mL amphotericin B, 1 μM PA
[7] = 100 μM PA, single agent: squalene 100 μg/mL or terbinafine 80 μg/mL

SMILES	growth of WT cells on YPD agar in the presence of the drug [1]	growth of cab1^ts cells on YPD agar in the presence of the drug [2]	drug-drug interaction pattern with α-PanAm (isobologram) [5]	mid-log phase reached at (time) [3, 7]	also measured
CCC(C)(C)c1ccc(CC(C)CN2C[C@@H](C)O[C@@H](C)C2)cc1 (stereo partly drawn) [amorolfine]	completely blocked	not affected	–	–	–
C[C@@H]1[C@H](O)[C@@H](C)/C=C/C=C/C=C/C=C/C=C/C=C/C=C/[C@H](O[C@@H]2O[C@H](C)[C@@H](O)[C@H](N)[C@@H]2O)C[C@@H]2O[C@](O)(C[C@@H](O)C[C@@H](O)[C@H](O)CC[C@@H](O)C[C@@H](O)CC(=O)O[C@H]1C)C[C@H](O)[C@H]2C(=O)O [amphotericin B]	only slightly inhibited	reduced dramatically	synergism	–	relative time to mid-log phase in the presence vs. absence of the drug [3, 6]: 2.1; growth of WT cells in liquid medium ([3]; 1 μg/mL amphotericin B, 100 μM PA): not significantly affected; growth of cab1^ts cells in liquid medium [4, 6]: did not grow whatsoever
OC(Cn1cncn1)(Cn1cncn1)c1ccc(F)cc1F [fluconazole]	greatly reduced	not affected	–	–	–
CC(C)=CCC/C(C)=C/CC/C(C)=C/CC/C=C(\C)CC/C=C(\C)CCC=C(C)C [squalene]	–	–	–	34 hours	–
CN(C/C=C/C#CC(C)(C)C)Cc1cccc2ccccc12 [terbinafine]	greatly reduced	not affected	antagonism	47 hours	mid-log phase reached at (time) ([3]; 100 μM PA, terbinafine 80 μg/mL in the presence of 100 μg/mL squalene): 61 hours; relative time to mid-log phase in the presence vs. absence of the drug ([3]; 160 μg/mL terbinafine, 1 μM PA): 1.8; relative time to mid-log phase in the presence vs. absence of the drug ([3]; 160 μg/mL terbinafine, 10 μM PA): 2.1; relative time to mid-log phase in the presence vs. absence of the drug ([3]; 160 μg/mL terbinafine, 100 μM PA): 2.3; relative time to mid-log phase in the presence vs. absence of the drug ([4]; 1 μM PA): 1.1; relative time to mid-log phase in the presence vs. absence of the drug ([4]; 10 μM PA): 1.4; relative time to mid-log phase in the presence vs. absence of the drug ([4]; 100 μM PA): 1.6
CC(CNC(=O)[C@H](O)C(C)(C)CO)C(=O)NCCc1ccccc1 (stereo partly drawn) [α-PanAm]	–	–	–	–	MIC50 (yeast; medium supplemented with 1 μM pantothenic acid): ~7.6 µg/mL (≈ 22.6 µM); MIC50 (yeast; medium with 100 nM pantothenic acid): ~1.9 µg/mL (≈ 5.65 µM)
